The values below are quoted from earlier work in US5427767A, “Nanocrystalline magnetic iron oxide particles-method for preparation and use in medical diagnostics and therapy” (Institut fur Diagnostikforschung GmbH an der Freien …, priority 1991, dated 1995).

The conditions of data set [1]: 0.47 T, water, 40° C.
The conditions of data set [2]: in vivo.

For `O=C([O-])CN(CCN(CC(=O)[O-])CC(=O)O)CCN(CC(=O)[O-])CC(=O)O.[Gd+3]` [Gd-DTPA], in data set [1], the T1 relaxivity is reported as ~4 1/mmol .phi.s and the T2 relaxivity is ~4 1/mmol .phi.s.
With dextran, the allergic potential result in data set [2] is on record as “adverse allergic potential”.
